{"source": "patent US9162992B2", "about": "“Compounds and compositions for treatment of breathing control disorders or diseases” (GALLEON PHARMACEUTICALS, INC., priority 2010, dated 2015)", "key": {"[1]": {"test_system": "spontaneously breathing rats", "test": "Minute ventilation (MV) and cardiovascular parameters in naive rats", "type": "in vivo, rat", "set-up": "unit not given here", "in_short": "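Isoflurane-anesthetized rats, intubated and breathing spontaneously at 1.5% isoflurane, received compounds IV, typically 1 mpk, via femoral vein. Minute ventilation recorded as maximum peak response and change versus baseline. Mean arterial pressure and heart rate were monitored through a femoral arterial catheter.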"}, "[2]": {"test": "Stability as a function of buffer strength (1 mg/mL, citrate pH 3.0)", "type": "physicochemical", "set-up": "Assay: unit not given here", "settings": "for Impurities: unit assumed", "procedure": "A 10 mg/mL (XXXVI) solution in 100 mM citrate buffer at pH 3.0 and a 500 mM citrate buffer at pH 3.0 were prepared. Using these two stock solutions, (XXXVI) solutions at 1 mg/mL were prepared in citrate buffers of various concentrations in the range 10-250 mM, as shown in Table 12E.\nEach of the above solutions was stored in 5 mL serum vials as ca. 2.5-3 mL aliquots (total of 7 aliquots). Two aliquots were stored at each of 40° C., 60° C. and 25° C. Aliquots stored at 25° C. served as controls to be evaluated if necessary. […]"}, "[3]": {"test_system": "spontaneously breathing rats", "test": "Dose-dependent effect on minute ventilation (MV) in naive rats", "type": "in vivo, rat", "procedure": "All surgical procedures were performed under anesthesia induced by 2% isoflurane in compressed medical grade air. With rats in supine position, the right femoral vein was catheterized using polyethylene tubing (PE-50). This catheter was used for fluid and drug administration. Simultaneously, the right femoral artery was also catheterized for monitoring blood pressure. In order to measure the respiratory parameters in spontaneously breathing rats, trachea was intubated using 13 gauge tracheal tube (2.5 mm ID, Instech Solomon, Pa.).\nAfter establishing a stable base-line at 1.5% isoflurane, cumulative dose-dependent (0.01, 0.03, 0.1, 0.3, 1, 3, 10 mg/kg) ventilatory responses to compounds (XXXVI) and (L), labeled as cmpd (A) and cmpd (B) respectively, were generated from spontaneously breathing rats. Maximum peak minute ventilatory (MV) values at each dose of corresponding drug were calculated and used for generating ED50 values."}, "pKa": {"test": "pKa", "type": "physicochemical"}, "[4]": {"settings": "1 mpk IV, 15% DMA 85% D5W, pH 5-6"}, "[5]": {"settings": "Table 8, 1 mpk, 20% HPβCD, pH 5"}}, "data": [{"smiles": "CCCNc1nc(NCCC)nc(N(C)OC)n1", "note": "[XXXV, N-(4,6-Bis-n-propylamino-[1,3,5]triazin-2-yl)-N,O-dimethyl-hydroxylamine]", "values": [{"measurement": "MV MPR", "setting": "[1]; [4]", "result": 207}, {"measurement": "MV ΔMV", "setting": "[1]; [4]", "result": 135}, {"measurement": "MV MPR", "setting": "[1]; 1 mpk IV, 20% HPβCD, pH 4-5", "result": 344}, {"measurement": "MV ΔMV", "setting": "[1]; 1 mpk IV, 20% HPβCD, pH 4-5", "result": 210}, {"measurement": "MV DMV", "setting": "[1]; [5]", "result": 164}, {"measurement": "MV MPR", "setting": "[1]; [5]", "result": 267}, {"measurement": "Assay", "setting": "[2]; 10 mM, 40° C. 1 wk", "result": 0.953}, {"measurement": "pH", "setting": "[2]; 10 mM, 40° C. 1 wk", "result": 3.26}, {"measurement": "Assay", "setting": "[2]; 10 mM, 40° C. 2 wk", "result": 0.947}, {"measurement": "pH", "setting": "[2]; 10 mM, 40° C. 2 wk", "result": 3.21}, {"measurement": "Assay", "setting": "[2]; 10 mM, 60° C. 1 wk", "result": 0.953}, {"measurement": "pH", "setting": "[2]; 10 mM, 60° C. 1 wk", "result": 3.3}, {"measurement": "Impurities", "setting": "[2]; 10 mM, 60° C. 1 wk", "result": 0.48, "unit": "%"}, {"measurement": "Assay", "setting": "[2]; 10 mM, 60° C. 2 wk", "result": 0.956}, {"measurement": "pH", "setting": "[2]; 10 mM, 60° C. 2 wk", "result": 3.2}, {"measurement": "Impurities", "setting": "[2]; 10 mM, 60° C. 2 wk", "result": 0.89, "unit": "%"}, {"measurement": "Assay", "setting": "[2]; 10 mM, initial", "result": 0.971}, {"measurement": "pH", "setting": "[2]; 10 mM, initial", "result": 3.16}, {"measurement": "Assay", "setting": "[2]; 20 mM, 40° C. 1 wk", "result": 0.965}, {"measurement": "pH", "setting": "[2]; 20 mM, 40° C. 1 wk", "result": 3.33}, {"measurement": "Impurities", "setting": "[2]; 20 mM, 40° C. 1 wk", "result": 0.13, "unit": "%"}, {"measurement": "Assay", "setting": "[2]; 20 mM, 40° C. 2 wk", "result": 0.966}, {"measurement": "pH", "setting": "[2]; 20 mM, 40° C. 2 wk", "result": 3.30}, {"measurement": "Assay", "setting": "[2]; 20 mM, 60° C. 1 wk", "result": 0.943}, {"measurement": "pH", "setting": "[2]; 20 mM, 60° C. 1 wk", "result": 3.3}, {"measurement": "Impurities", "setting": "[2]; 20 mM, 60° C. 1 wk", "result": 0.58, "unit": "%"}, {"measurement": "Assay", "setting": "[2]; 20 mM, 60° C. 2 wk", "result": 0.947}, {"measurement": "pH", "setting": "[2]; 20 mM, 60° C. 2 wk", "result": 3.3}, {"measurement": "Impurities", "setting": "[2]; 20 mM, 60° C. 2 wk", "result": 0.88, "unit": "%"}, {"measurement": "Assay", "setting": "[2]; 20 mM, initial", "result": 1.01}, {"measurement": "pH", "setting": "[2]; 20 mM, initial", "result": 3.27}, {"measurement": "Assay", "setting": "[2]; 50 mM, 40° C. 1 wk", "result": 0.959}, {"measurement": "pH", "setting": "[2]; 50 mM, 40° C. 1 wk", "result": 3.34}, {"measurement": "Assay", "setting": "[2]; 50 mM, 40° C. 2 wk", "result": 0.949}, {"measurement": "pH", "setting": "[2]; 50 mM, 40° C. 2 wk", "result": 3.29}, {"measurement": "Assay", "setting": "[2]; 50 mM, 60° C. 1 wk", "result": 0.936}, {"measurement": "pH", "setting": "[2]; 50 mM, 60° C. 1 wk", "result": 3.3}, {"measurement": "Impurities", "setting": "[2]; 50 mM, 60° C. 1 wk", "result": 0.59, "unit": "%"}, {"measurement": "Assay", "setting": "[2]; 50 mM, 60° C. 2 wk", "result": 0.943}, {"measurement": "pH", "setting": "[2]; 50 mM, 60° C. 2 wk", "result": 3.3}, {"measurement": "Impurities", "setting": "[2]; 50 mM, 60° C. 2 wk", "result": 0.87, "unit": "%"}, {"measurement": "Assay", "setting": "[2]; 50 mM, initial", "result": 0.976}, {"measurement": "pH", "setting": "[2]; 50 mM, initial", "result": 3.28}, {"measurement": "Assay", "setting": "[2]; 100 mM, 40° C. 1 wk", "result": 0.964}, {"measurement": "pH", "setting": "[2]; 100 mM, 40° C. 1 wk", "result": 3.32}, {"measurement": "Impurities", "setting": "[2]; 100 mM, 40° C. 1 wk", "result": 0.26, "unit": "%"}, {"measurement": "Assay", "setting": "[2]; 100 mM, 40° C. 2 wk", "result": 0.956}, {"measurement": "pH", "setting": "[2]; 100 mM, 40° C. 2 wk", "result": 3.29}, {"measurement": "Impurities", "setting": "[2]; 100 mM, 40° C. 2 wk", "result": 0.38, "unit": "%"}, {"measurement": "Assay", "setting": "[2]; 100 mM, 60° C. 1 wk", "result": 0.962}, {"measurement": "pH", "setting": "[2]; 100 mM, 60° C. 1 wk", "result": 3.3}, {"measurement": "Impurities", "setting": "[2]; 100 mM, 60° C. 1 wk", "result": 0.73, "unit": "%"}, {"measurement": "Assay", "setting": "[2]; 100 mM, 60° C. 2 wk", "result": 0.946}, {"measurement": "pH", "setting": "[2]; 100 mM, 60° C. 2 wk", "result": 3.2}, {"measurement": "Impurities", "setting": "[2]; 100 mM, 60° C. 2 wk", "result": 1.2, "unit": "%"}, {"measurement": "Assay", "setting": "[2]; 100 mM, initial", "result": 0.962}, {"measurement": "pH", "setting": "[2]; 100 mM, initial", "result": 3.30}, {"measurement": "Assay", "setting": "[2]; 250 mM, 40° C. 1 wk", "result": 0.972}, {"measurement": "pH", "setting": "[2]; 250 mM, 40° C. 1 wk", "result": 3.25}, {"measurement": "Impurities", "setting": "[2]; 250 mM, 40° C. 1 wk", "result": 0.21, "unit": "%"}, {"measurement": "Assay", "setting": "[2]; 250 mM, 40° C. 2 wk", "result": 0.945}, {"measurement": "pH", "setting": "[2]; 250 mM, 40° C. 2 wk", "result": 3.22}, {"measurement": "Impurities", "setting": "[2]; 250 mM, 40° C. 2 wk", "result": 0.56, "unit": "%"}, {"measurement": "Assay", "setting": "[2]; 250 mM, 60° C. 1 wk", "result": 0.955}, {"measurement": "pH", "setting": "[2]; 250 mM, 60° C. 1 wk", "result": 3.2}, {"measurement": "Impurities", "setting": "[2]; 250 mM, 60° C. 1 wk", "result": 1.03, "unit": "%"}, {"measurement": "Assay", "setting": "[2]; 250 mM, 60° C. 2 wk", "result": 0.936}, {"measurement": "pH", "setting": "[2]; 250 mM, 60° C. 2 wk", "result": 3.2}, {"measurement": "Impurities", "setting": "[2]; 250 mM, 60° C. 2 wk", "result": 1.8, "unit": "%"}, {"measurement": "Assay", "setting": "[2]; 250 mM, initial", "result": 0.947}, {"measurement": "pH", "setting": "[2]; 250 mM, initial", "result": 3.21}, {"measurement": "effect of buffer strength on impurity levels", "setting": "[2]; 40° C., buffer concentration relevant to the formulation (ca. 10-50 mM)", "result": "no effect of buffer strength at 40 °C"}]}, {"smiles": "CCCNc1nc(NCCC)nc(N(C)OC)n1.O=S(=O)(O)O", "note": "[XXXVI, N-(4,6-Bis-n-propylamino-[1,3,5]triazin-2-yl)-N,O-dimethyl-hydroxylamine hydrogen sulfate]", "values": [{"measurement": "ED50", "setting": "[3]; Rattus norvegicus, iv, read-out: ED50, maximum peak minute ventilation", "result": 0.14, "unit": "mg/kg"}, {"measurement": "minute ventilation, dose dependence", "setting": "[3]; cumulative IV doses, 1.5% isoflurane", "result": "increased minute ventilation in a dose-dependent manner"}, {"measurement": "pKa", "setting": "pKa", "result": 5.6}]}]}
